The assay has as its target T1, DPP4 (Homo sapiens, UniProt P27487).
T1 construct: from tissue; host or cells: human heparinized plasma
The assay is described as follows: DPP4 activity by MSIA: substrate conversion in human heparinized plasma spiked with recombinant DPP4 substrate peptide and inhibitor. Type of assay: biochemical. The protocol: MSIA is a method by which sample purification and preparation occurs essentially simultaneously with sample aliquot and delivery. More specifically, a pipette tip, into which a specific volume of a clinical sample, human or animal, is drawn, contains an affinity reagent for selective preparation and immuno-affinity purification of the sample for subsequent direct mass spectrometer analysis; i.e., no intervening purification steps are performed. As shown schematically in FIG. 1, a clinical sample is drawn into a pipette tip containing an exogenous synthetic peptide substrate. The clinical sample and the exogenous peptide substrate are incubated to effect binding of the exogenous peptide substrate to a specific enzyme that is present in the clinical sample. After washes with buffer and water, the eluant is used for subsequent MS analysis. In this elution process, the eluate is dispensed into a microtiter plate for LC/MS application, directly into a LC/MS, or onto a target for MS insertion. Regardless of the MS technique applied, the eluant contained the exogenous peptide substrates, both the parent exogenous peptide substrate and the cleaved degraded product that was produced based on the activity of the enzyme contained in the clinical sample.
An exogenous synthetic peptide that is a substrate for the enzyme to be assessed is introduced into a clinical specimen, e.g., blood, urine, plasma, cerebrospinal fluid, lymphatic fluid, etc., i.e., the clinical sample is spiked or doped with the exogenous synthetic peptide substrate. For example, if the enzyme to be assessed is DPP4, the sample may be spiked with an exogenous peptide substrate for DPP4, e.g., recombinant GLP1, natriuretic peptide, etc. The exogenous synthetic peptide substrate that is added to the clinical sample in vitro is termed the parent substrate. The sample is then analyzed by MS, or is incubated for a set period of time before MS analysis. Incubation may be for any desired time period, and at any desired temperature, e.g., ambient temperature 19° C.-22° C., or at another desirable temperature, e.g., 37° C. Enzyme that is present in the clinical sample proteolytically cleaves the exogenous parent synthetic peptide substrate into a smaller fragment. The exogenous synthetic peptide substrates, both the parent (unreacted) and the cleaved (reacted) degraded product, are the targets that are monitored by subsequent MSIA. The method may be summarized as follows:
In one embodiment, a MS measurement of the exogenous synthetic peptide substrate in the sample (step (b)) is performed at a single time point, e.g., 15 min. In one embodiment, a MS measurement of the exogenous synthetic peptide substrate in the sample (step (b)) is performed over a time course, e.g., from 100% substrate to decreased or essentially depleted substrate. The time course may be performed utilizing sequential aliquot removal from the same clinical sample, or may be performed on multiple samples assayed in parallel. In all embodiments, the clinical samples are analyzed using MSIA, which selectively targets the substrate peptide, both reacted and non-reacted. MS detection allows for differentiation of the two forms, i.e., the reacted (cleaved, degraded) form of the substrate peptide, and unreacted parent form of the substrate peptide. It thus provides a method of analyzing the activity of an enzyme in a biological system.
In embodiments, clinical samples were treated with various inhibitors to determine the modulation, if any, of the endogenous enzyme activity. For example, if DPP4 was the enzyme whose activity was to be assessed, inhibitors were used that were known or speculated to inhibit DPP4 activity. Concentration studies were also performed (data not shown).
The following results were obtained with the leupeptin inhibitor:
The following results were obtained with the AEBSF inhibitor: […]

Where [1] appears, read: Human Plasma 1, 5 mM AEBSF, 0 min.
Where [2] appears, read: Human Plasma 1, 5 mM AEBSF, 15 min.
Setting [3] is: Human Plasma 1, 5 mM AEBSF, 30 min.
Setting [4] is: Human Plasma 1, 5 mM AEBSF, 45 min.
The mark [5] stands for this setting: Human Plasma 1, 5 mM AEBSF, 60 min.
Setting [6] is: Human Plasma 1, 5 mM AEBSF, 75 min.
Setting [7] is: Human Plasma 1, 1 mM leupeptin, 0 min.
[8] abbreviates: Human Plasma 1, 1 mM leupeptin, 15 min.
Where [9] appears, read: Human Plasma 1, 1 mM leupeptin, 30 min.
The mark [10] stands for this setting: Human Plasma 1, 1 mM leupeptin, 45 min.
Where [11] appears, read: Human Plasma 1, 1 mM leupeptin, 60 min.
Where [12] appears, read: Human Plasma 1, 1 mM leupeptin, 75 min.

T1 sequence (P27487 39-766 limits assumed): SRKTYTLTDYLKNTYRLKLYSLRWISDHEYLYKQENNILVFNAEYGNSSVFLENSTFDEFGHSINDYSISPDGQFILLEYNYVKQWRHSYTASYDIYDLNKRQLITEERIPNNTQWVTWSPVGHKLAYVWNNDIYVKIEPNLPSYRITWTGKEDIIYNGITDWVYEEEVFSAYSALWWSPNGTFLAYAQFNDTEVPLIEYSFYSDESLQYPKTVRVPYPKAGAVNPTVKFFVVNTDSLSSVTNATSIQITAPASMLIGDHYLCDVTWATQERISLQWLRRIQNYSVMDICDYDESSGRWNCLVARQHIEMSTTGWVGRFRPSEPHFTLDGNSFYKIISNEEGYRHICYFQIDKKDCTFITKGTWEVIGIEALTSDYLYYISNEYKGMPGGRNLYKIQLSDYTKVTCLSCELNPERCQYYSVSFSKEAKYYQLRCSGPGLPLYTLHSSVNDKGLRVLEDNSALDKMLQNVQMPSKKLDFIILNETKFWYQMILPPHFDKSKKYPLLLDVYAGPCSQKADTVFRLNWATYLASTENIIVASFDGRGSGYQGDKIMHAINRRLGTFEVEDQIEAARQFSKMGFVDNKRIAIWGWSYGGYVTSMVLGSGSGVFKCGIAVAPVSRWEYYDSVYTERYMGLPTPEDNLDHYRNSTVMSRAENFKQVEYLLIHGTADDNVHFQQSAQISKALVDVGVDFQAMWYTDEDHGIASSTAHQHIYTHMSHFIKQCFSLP

For `NCCc1ccc(S(=O)(=O)F)cc1` [AEBSF], the “% Product” value is, setting by setting: under setting [1], 0%; under setting [2], 11.7%; under setting [3], 17.4%; under setting [4], 22.2%; under setting [5], 24.3%; under setting [6], 24.8%. Also, the “% Substrate” value under setting [1] turned out to be 100%; the “% Substrate” value under setting [2] was found to be 88.3%; the “% Substrate” value under setting [3] is 82.6%; the “% Substrate” value under setting [4] is 77.8%; the “% Substrate” value under setting [5] is 75.7%; the “% Substrate” value under setting [6] turned out to be 75.2%.
`CC(=O)N[C@@H](CC(C)C)C(=O)N[C@@H](CC(C)C)C(=O)N[C@H](C=O)CCCNC(=N)N` [leupeptin]: the “% Product” value runs as follows: under setting [7], 0%; under setting [8], 52.6%; under setting [9], 77.8%; under setting [10], 85.1%; under setting [11], 87.9%; under setting [12], 90.2%. Also, the “% Substrate” value by setting is: under setting [7], 100%; under setting [8], 47.4%; under setting [9], 22.2%; under setting [10], 14.9%; under setting [11], 12.1%; under setting [12], 9.8%.

These data come from patent publication US20140273008A1, “METHODS TO ASSESS ENZYME ACTIVITY USING MASS SPECTROMETRIC IMMUNOASSAY” (Molecular BioProducts, Inc., priority 2013, published 2014).
